Tested on: 422866-222-R5-J1-PDC complex spheroid viability
Assay: Anticancer human tumor 422866-222-R5-J1-PDC patient-derived pancreatic adenocarcinoma cell line growth inhibition [POLQ]
Settings: for IC50: curve of first compound; for viability, T/C: stronger effect = lower value
Description: Multicellular complex tumor spheroid response to Polymerase (POL) inhibitors (novobiocin, ART-558, RP6685) in combination with a variety of drugs and investigational agents in selected tumor cell lines
The POL inhibitors (novobiocin, ART-558, and RP6685) were evaluated both individually and in combination with standard of care and investigational anticancer small molecules within a complex spheroid model of solid tumors. . Complex spheroids include a stromal component modeled by human endothelial cells (HUVEC) and fibroblasts modeled by human mesenchymal stem cells (MSCs). The concentration ranges selected for each drug and investigational agent were based upon clinically achievable concentrations if the clinical Cmax of the agent was known.
Compounds. The drugs and investigational agents: novobiocin (NSC847541), ART-558 (NSC835418), RP-6685 (NSC848927), peposertib (NSC802822), ceralasertib (NSC780249), elimusertib (NSC800525), camonsertib (NSC841442), AZD-1390 (NSC803789), olaparib (NSC753686), talazoparib (NSC767125), rucaparib (NSC756644), sotorasib (NSC818433), MRTX-1133 (NSC836407), SN-38 (NSC673596), topotecan (NSC609699), epotoside (NSC141540), doxorubicin (NSC123127), gemcitabine (NSC613327), 5-fluorouracil (NSC19893), paclitaxel (NSC125973), vemurafenib (NSC761431), MSA-2 (NSC828583), SN-011 (NSC837082), adavosertib (NSC754352), prexasertib (NSC758257), carboplatin (NSC241240) and oxaliplatin (NSC266046), were obtained from the National Cancer Institute (NCI) Developmental Therapeutics Program Chemical Repository (21). The FDA-approved anticancer drug set is available from the Developmental Therapeutics Program at https://dtp.cancer.gov/organization/dscb/obtaining/. […] The stock solutions were prepared in dimethyl sulfoxide (DMSO, Sigma-Aldrich, St. Louis, MO, cat. D2650), except for the platinum compounds which were prepared in saline (Quality Biological, Gaithersburg, MD, cat. 114-055-101), at 800-fold the tested concentration and stored at -70 degrees C prior to their use. All drugs and investigational agents were tested over a range starting from a high concentration at or near the clinical Cmax and decreasing in half-log increments. If the clinical Cmax for an agent had not been determined, the highest concentration tested was 10 microM, except for SN-38, which was tested at a high concentration of 1 microM.
Cell Culture. All cells were maintained in an incubator at 37 degrees C and 5% CO2 with 95% humidity. The PDC lines were cultured according to standard operating procedures established by the NCI PDMR (https://pdmr.cancer.gov). Table 3 of the manuscript, lists the cell lines along with the number of the three cell types plated to form the mct-spheroids and media for tumor cell growth. After thawing, all PDC lines, except 997537-175-T-J1-PDC and 415267-285-R-J2-PDC, were cultured in Matrigel-coated flasks prepared with a working solution of 1X Ham's F-12 nutrient mix, without supplementation (Thermo Fisher Scientific, cat. 11765054), 100 U/mL penicillin-streptomycin (Thermo Fisher Scientific, cat. 15140122), and 2.5% Matrigel (Corning Inc., Corning, NY, cat. 354248) for the first three passages. The two PDC lines 997537-175-T-J1-PDC and 415267-285-R-J2-PDC were cultured on uncoated flasks. The 857933-349-R-J2-PDC line was cultured in 6C/Colon 1B media containing advanced DMEM/F-12 (Thermo Fisher Scientific, cat. 12634028), 10 mM HEPES (Thermo Fisher Scientific, cat. 15630080), 1X GlutaMAX supplement (Thermo Fisher Scientific, cat. 35050061), 0.1 mg/mL primocin (InvivoGen, San Diego, CA, cat. ant-pm-2), 10% defined fetal bovine serum, heat inactivated (HyClone Laboratories Inc., Logan, UT, cat. SH30070.03HI), 50% L-WRN conditioned media (ATCC, cat. CRL-3276), 1.25 mM N-Acetyl-L-cysteine (Sigma-Aldrich, cat. A9165), 10 mM nicotinamide (Sigma-Aldrich, cat. N0636), 1X B-27 supplement (Thermo Fisher Scientific, cat. 17504044), 1X N-2 supplement (Thermo Fisher Scientific, cat. […]
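Note: spheroids exposed to compounds for one week before readout.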
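Throughout, for viability, T/C: percent of DMSO vehicle wells luminescence so 100% = untreated viability.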

## CC(=O)O[C@H]1C(=O)[C@@]2(C)[C@H]([C@H](OC(=O)c3ccccc3)[C@]3(O)C[C@H](OC(=O)[C@H](O)[C@@H](NC(=O)c4ccccc4)c4ccccc4)C(C)=C1C3(C)C)[C@]1(OC(C)=O)CO[C@@H]1C[C@@H]2O + COC1C(OC(N)=O)C(O)C(Oc2ccc3c(O)c(NC(=O)c4ccc(O)c(CC=C(C)C)c4)c(=O)oc3c2C)OC1(C)C
Second compound 0.0316 µM
  IC50: > 3 µM
Second compound 0.1 µM
  IC50: > 3 µM
Second compound 0.316 µM
  IC50: > 3 µM
Second compound 1 µM
  IC50: > 3 µM
Second compound 3.16 µM
  IC50: > 3 µM
Second compound 10 µM
  IC50: > 3 µM
Second compound 0.0316 µM, first compound 0.00949 µM
  viability, T/C: 64.8%
Second compound 0.0316 µM, first compound 0.03 µM
  viability, T/C: 57.2%
Second compound 0.0316 µM, first compound 0.0949 µM
  viability, T/C: 61.5%
Second compound 0.0316 µM, first compound 0.3 µM
  viability, T/C: 59.5%
Second compound 0.0316 µM, first compound 0.949 µM
  viability, T/C: 64.7%
Second compound 0.0316 µM, first compound 3 µM
  viability, T/C: 80.4%
Second compound 0.1 µM, first compound 0.00949 µM
  viability, T/C: 71.6%
Second compound 0.1 µM, first compound 0.03 µM
  viability, T/C: 67.4%
Second compound 0.1 µM, first compound 0.0949 µM
  viability, T/C: 66%
Second compound 0.1 µM, first compound 0.3 µM
  viability, T/C: 67%
Second compound 0.1 µM, first compound 0.949 µM
  viability, T/C: 69.1%
Second compound 0.1 µM, first compound 3 µM
  viability, T/C: 78.8%
Second compound 0.316 µM, first compound 0.00949 µM
  viability, T/C: 67%
Second compound 0.316 µM, first compound 0.03 µM
  viability, T/C: 63.5%
Second compound 0.316 µM, first compound 0.0949 µM
  viability, T/C: 54.6%
Second compound 0.316 µM, first compound 0.3 µM
  viability, T/C: 65.1%
Second compound 0.316 µM, first compound 0.949 µM
  viability, T/C: 70.7%
Second compound 0.316 µM, first compound 3 µM
  viability, T/C: 84.5%
Second compound 1 µM, first compound 0.00949 µM
  viability, T/C: 62.1%
Second compound 1 µM, first compound 0.03 µM
  viability, T/C: 54.9%
Second compound 1 µM, first compound 0.0949 µM
  viability, T/C: 61.4%
Second compound 1 µM, first compound 0.3 µM
  viability, T/C: 56.3%
Second compound 1 µM, first compound 0.949 µM
  viability, T/C: 59.6%
Second compound 1 µM, first compound 3 µM
  viability, T/C: 81.1%
Second compound 3.16 µM, first compound 0.00949 µM
  viability, T/C: 66.8%
Second compound 3.16 µM, first compound 0.03 µM
  viability, T/C: 52.9%
Second compound 3.16 µM, first compound 0.0949 µM
  viability, T/C: 55.3%
Second compound 3.16 µM, first compound 0.3 µM
  viability, T/C: 54%
Second compound 3.16 µM, first compound 0.949 µM
  viability, T/C: 75%
Second compound 3.16 µM, first compound 3 µM
  viability, T/C: 86.7%
Second compound 10 µM, first compound 0.00949 µM
  viability, T/C: 63.7%
Second compound 10 µM, first compound 0.03 µM
  viability, T/C: 60.6%
Second compound 10 µM, first compound 0.0949 µM
  viability, T/C: 60.3%
Second compound 10 µM, first compound 0.3 µM
  viability, T/C: 61.5%
Second compound 10 µM, first compound 0.949 µM
  viability, T/C: 72%
Second compound 10 µM, first compound 3 µM
  viability, T/C: 91.9%

— PubChem BioAssay AID1963844 (Molecular Pharmacology Branch, DTP, NCI, 2024)
